Reference: paper PMC11364775, “Ion occupancy of the selectivity filter controls opening of a cytoplasmic gate in the K2P channel TALK-2” (Nature Communications, 2024)

Molecular target: T1, WT TREK-2 channels (Homo sapiens, UniProt P57789)
T1 construct: expressed in transfected cells; host or cells: Xenopus laevis oocytes (cRNA injection), excised inside-out patches
T1 sequence (P57789 1-538): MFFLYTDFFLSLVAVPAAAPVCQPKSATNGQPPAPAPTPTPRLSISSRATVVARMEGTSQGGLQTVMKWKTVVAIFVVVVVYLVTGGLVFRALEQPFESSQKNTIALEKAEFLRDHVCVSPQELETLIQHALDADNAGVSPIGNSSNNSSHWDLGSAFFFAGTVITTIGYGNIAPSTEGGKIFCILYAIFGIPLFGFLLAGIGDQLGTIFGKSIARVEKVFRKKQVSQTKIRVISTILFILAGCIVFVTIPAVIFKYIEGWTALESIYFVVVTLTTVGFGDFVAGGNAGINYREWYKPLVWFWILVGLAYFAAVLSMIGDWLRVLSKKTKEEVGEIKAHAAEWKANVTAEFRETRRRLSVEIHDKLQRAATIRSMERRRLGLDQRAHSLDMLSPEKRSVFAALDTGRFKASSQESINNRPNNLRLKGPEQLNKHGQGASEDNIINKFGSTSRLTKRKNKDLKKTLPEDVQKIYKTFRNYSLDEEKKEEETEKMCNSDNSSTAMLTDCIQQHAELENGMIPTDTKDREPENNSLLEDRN
Assay: Conductance-voltage (G-V) curves from tail currents, V1/2 (intracellular Rb+)
Format: cell-based
Description: The voltage-dependent activation mechanism of the SF gate in K2P channels allows to estimate the electrical work (ΔG = zFΔV1/2) required for pore opening by fitting the G–V curve to a Boltzmann equation. […] The open state represents the situation of both gates being simultaneously open but voltage can only exert force on the SF gate that functions as voltage sensor. […] We further tested whether mutations that open the lower gate (L262A and L264A) would affect the extracellular pH sensitivity. […] We further explored this concept of allosteric coupling using the mutations identified in the functional alanine screen of TM2 and TM4. […]
Conductance-voltage (G–V) relationships were determined from tail currents recorded at a holding potential (VH) of −80 mV after 300 ms depolarizing steps as indicated in the respective figure legend. Data were analyzed with a single Boltzmann fit following Eq. 6:6 GV=Imax/1+e^V−V1/2/slope+Ibase where V1/2 represents the voltage of half-maximal activation, s is the slope factor and Imax and Ibase represent the upper and lower asymptotes. Under appropriate experimental conditions, you can use slope to calculate the valence (charge) of the ion moving across the channel. Slope equals R * T/ z * F where R is the universal gas constant, T is temperature in K, F is the Faraday constant, and z is the valence.

CCCCC[N+](CCCCC)(CCCCC)CCCCC [TPenA, Tetra-pentyl-ammonium chloride]
Normalized current (TREK-2 WT + 0.1 mM TPenA, Voltage -0.090): 0.044 | Normalized current (TREK-2 WT + 0.1 mM TPenA, Voltage -0.095): 0.044 | Normalized current (TREK-2 WT + 1 mM TPenA, Voltage 0.000): 0.164 | Normalized current (TREK-2 WT + 1 mM TPenA, Voltage 0.005): 0.199 | Normalized current (TREK-2 WT + 1 mM TPenA, Voltage 0.010): 0.243 | Normalized current (TREK-2 WT + 1 mM TPenA, Voltage 0.015): 0.286 | Normalized current (TREK-2 WT + 1 mM TPenA, Voltage 0.020): 0.362 | Normalized current (TREK-2 WT + 1 mM TPenA, Voltage 0.025): 0.446 | Normalized current (TREK-2 WT + 1 mM TPenA, Voltage 0.030): 0.519 | Normalized current (TREK-2 WT + 1 mM TPenA, Voltage 0.035): 0.589 | Normalized current (TREK-2 WT + 1 mM TPenA, Voltage 0.040): 0.634 | Normalized current (TREK-2 WT + 1 mM TPenA, Voltage 0.045): 0.688 | Normalized current (TREK-2 WT + 1 mM TPenA, Voltage 0.050): 0.702 | Normalized current (TREK-2 WT + 1 mM TPenA, Voltage 0.055): 0.751 | Normalized current (TREK-2 WT + 1 mM TPenA, Voltage 0.060): 0.768 | Normalized current (TREK-2 WT + 1 mM TPenA, Voltage 0.065): 0.790 | Normalized current (TREK-2 WT + 1 mM TPenA, Voltage 0.070): 0.818 | Normalized current (TREK-2 WT + 1 mM TPenA, Voltage 0.075): 0.805 | Normalized current (TREK-2 WT + 1 mM TPenA, Voltage 0.080): 0.838 | Normalized current (TREK-2 WT + 1 mM TPenA, Voltage 0.085): 0.838 | Normalized current (TREK-2 WT + 1 mM TPenA, Voltage 0.090): 0.887 | Normalized current (TREK-2 WT + 1 mM TPenA, Voltage 0.095): 0.885 | Normalized current (TREK-2 WT + 1 mM TPenA, Voltage 0.100): 0.885 | Normalized current (TREK-2 WT + 1 mM TPenA, Voltage 0.105): 0.883 | Normalized current (TREK-2 WT + 1 mM TPenA, Voltage 0.110): 0.905 | Normalized current (TREK-2 WT + 1 mM TPenA, Voltage 0.115): 0.909 | Normalized current (TREK-2 WT + 1 mM TPenA, Voltage 0.120): 0.967 | Normalized current (TREK-2 WT + 1 mM TPenA, Voltage 0.125): 0.928 | Normalized current (TREK-2 WT + 1 mM TPenA, Voltage 0.130): 0.900 | Normalized current (TREK-2 WT + 1 mM TPenA, Voltage 0.135): 0.929 | Normalized current (TREK-2 WT + 1 mM TPenA, Voltage 0.140): 0.939 | Normalized current (TREK-2 WT + 1 mM TPenA, Voltage 0.145): 0.922 | Normalized current (TREK-2 WT + 1 mM TPenA, Voltage 0.150): 0.939 | Normalized current (TREK-2 WT + 1 mM TPenA, Voltage -0.005): 0.135 | Normalized current (TREK-2 WT + 1 mM TPenA, Voltage -0.010): 0.126 | Normalized current (TREK-2 WT + 1 mM TPenA, Voltage -0.015): 0.111 | Normalized current (TREK-2 WT + 1 mM TPenA, Voltage -0.020): 0.109 | Normalized current (TREK-2 WT + 1 mM TPenA, Voltage -0.025): 0.110 | Normalized current (TREK-2 WT + 1 mM TPenA, Voltage -0.030): 0.103 | Normalized current (TREK-2 WT + 1 mM TPenA, Voltage -0.035): 0.102 | Normalized current (TREK-2 WT + 1 mM TPenA, Voltage -0.040): 0.096 | Normalized current (TREK-2 WT + 1 mM TPenA, Voltage -0.045): 0.095 | Normalized current (TREK-2 WT + 1 mM TPenA, Voltage -0.050): 0.089 | Normalized current (TREK-2 WT + 1 mM TPenA, Voltage -0.055): 0.092 | Normalized current (TREK-2 WT + 1 mM TPenA, Voltage -0.060): 0.088 | Normalized current (TREK-2 WT + 1 mM TPenA, Voltage -0.065): 0.090 | Normalized current (TREK-2 WT + 1 mM TPenA, Voltage -0.070): 0.088 | Normalized current (TREK-2 WT + 1 mM TPenA, Voltage -0.075): 0.085 | Normalized current (TREK-2 WT + 1 mM TPenA, Voltage -0.080): 0.084 | Normalized current (TREK-2 WT + 1 mM TPenA, Voltage -0.085): 0.087 | Normalized current (TREK-2 WT + 1 mM TPenA, Voltage -0.090): 0.084 | Normalized current (TREK-2 WT + 1 mM TPenA, Voltage -0.095): 0.081
